System: G3BP1 NFT2
Assay type: binding, human
Conditions: library DMS-BM; bait G3BP1 NFT2; prey CAPRIN1; AQMQGPYNFIQDSM(averaged): mean of the two overlapping peptides over the shared positions

Substance | DMS position-specific score (PSSM value) per amino-acid substitution, averaged
AQMQGPYNFIQDSM(averaged) F9I (AQMQGPYNIIQDSM) | 0
AQMQGPYNFIQDSM(averaged) Q4S (AQMSGPYNFIQDSM) | 0.003246
AQMQGPYNFIQDSM(averaged) Q4V (AQMVGPYNFIQDSM) | 0.1002
AQMQGPYNFIQDSM(averaged) I10Y (AQMQGPYNFYQDSM) | 0.003704
AQMQGPYNFIQDSM(averaged) I10A (AQMQGPYNFAQDSM) | 0.0009869
AQMQGPYNFIQDSM(averaged) Y7S (AQMQGPSNFIQDSM) | 0.06469
AQMQGPYNFIQDSM(averaged) Q4Q | 0.2404
AQMQGPYNFIQDSM(averaged) M14K (AQMQGPYNFIQDSK) | 0.0006833
AQMQGPYNFIQDSM(averaged) F9P (AQMQGPYNPIQDSM) | 0
AQMQGPYNFIQDSM(averaged) Q2R (ARMQGPYNFIQDSM) | 0.001052
AQMQGPYNFIQDSM(averaged) Q4M (AQMMGPYNFIQDSM) | 0.02121
AQMQGPYNFIQDSM(averaged) Q2E (AEMQGPYNFIQDSM) | 0.09844
AQMQGPYNFIQDSM(averaged) M3G (AQGQGPYNFIQDSM) | 0.02919
AQMQGPYNFIQDSM(averaged) Q4F (AQMFGPYNFIQDSM) | 0.01567
AQMQGPYNFIQDSM(averaged) S13Y (AQMQGPYNFIQDYM) | 0.0135
AQMQGPYNFIQDSM(averaged) M3W (AQWQGPYNFIQDSM) | 0.07564
AQMQGPYNFIQDSM(averaged) D12G (AQMQGPYNFIQGSM) | 0.006593
AQMQGPYNFIQDSM(averaged) D12M (AQMQGPYNFIQMSM) | 0.01204
AQMQGPYNFIQDSM(averaged) N8K (AQMQGPYKFIQDSM) | 0.007096
AQMQGPYNFIQDSM(averaged) S13P (AQMQGPYNFIQDPM) | 0
AQMQGPYNFIQDSM(averaged) P6G (AQMQGGYNFIQDSM) | 0.006371
AQMQGPYNFIQDSM(averaged) I10R (AQMQGPYNFRQDSM) | 0.001261
AQMQGPYNFIQDSM(averaged) D12T (AQMQGPYNFIQTSM) | 0.005851
AQMQGPYNFIQDSM(averaged) P6P | 0.3942
AQMQGPYNFIQDSM(averaged) M14H (AQMQGPYNFIQDSH) | 0.004419
AQMQGPYNFIQDSM(averaged) G5D (AQMQDPYNFIQDSM) | 0.001672
AQMQGPYNFIQDSM(averaged) M14I (AQMQGPYNFIQDSI) | 0.02696

Substance | DMS position-specific score (PSSM value) per amino-acid substitution, averaged
AQMQGPYNFIQDSM(averaged) P6W (AQMQGWYNFIQDSM) | 0.02305
AQMQGPYNFIQDSM(averaged) A1E (EQMQGPYNFIQDSM) | 0.1606
AQMQGPYNFIQDSM(averaged) Y7I (AQMQGPINFIQDSM) | 0.113
AQMQGPYNFIQDSM(averaged) Q2Y (AYMQGPYNFIQDSM) | 0.05198
AQMQGPYNFIQDSM(averaged) M14A (AQMQGPYNFIQDSA) | 0.06493
AQMQGPYNFIQDSM(averaged) F9M (AQMQGPYNMIQDSM) | 0
AQMQGPYNFIQDSM(averaged) D12S (AQMQGPYNFIQSSM) | 0.1749
AQMQGPYNFIQDSM(averaged) I10P (AQMQGPYNFPQDSM) | 0
AQMQGPYNFIQDSM(averaged) Y7T (AQMQGPTNFIQDSM) | 0
AQMQGPYNFIQDSM(averaged) P6Q (AQMQGQYNFIQDSM) | 0.00431
AQMQGPYNFIQDSM(averaged) A1H (HQMQGPYNFIQDSM) | 0.006137
AQMQGPYNFIQDSM(averaged) I10N (AQMQGPYNFNQDSM) | 0.0004895
AQMQGPYNFIQDSM(averaged) D12A (AQMQGPYNFIQASM) | 0.09226
AQMQGPYNFIQDSM(averaged) G5G | 0.2298
AQMQGPYNFIQDSM(averaged) F9F | 0.9484
AQMQGPYNFIQDSM(averaged) D12N (AQMQGPYNFIQNSM) | 0.03064
AQMQGPYNFIQDSM(averaged) A1Q (QQMQGPYNFIQDSM) | 0.1157
AQMQGPYNFIQDSM(averaged) G5T (AQMQTPYNFIQDSM) | 0.007904
AQMQGPYNFIQDSM(averaged) S13Q (AQMQGPYNFIQDQM) | 0
AQMQGPYNFIQDSM(averaged) Q11T (AQMQGPYNFITDSM) | 0.1081
AQMQGPYNFIQDSM(averaged) Q2T (ATMQGPYNFIQDSM) | 0.03322
AQMQGPYNFIQDSM(averaged) F9H (AQMQGPYNHIQDSM) | 0
AQMQGPYNFIQDSM(averaged) I10F (AQMQGPYNFFQDSM) | 0.1045
AQMQGPYNFIQDSM(averaged) S13S | 0.5152
AQMQGPYNFIQDSM(averaged) Q4P (AQMPGPYNFIQDSM) | 0.003604
AQMQGPYNFIQDSM(averaged) M14Y (AQMQGPYNFIQDSY) | 0.01132
AQMQGPYNFIQDSM(averaged) Q11Y (AQMQGPYNFIYDSM) | 0.0642

Substance | DMS position-specific score (PSSM value) per amino-acid substitution, averaged
AQMQGPYNFIQDSM(averaged) G5F (AQMQFPYNFIQDSM) | 0.2345
AQMQGPYNFIQDSM(averaged) M3Y (AQYQGPYNFIQDSM) | 0.01355
AQMQGPYNFIQDSM(averaged) Q4D (AQMDGPYNFIQDSM) | 0.3261
AQMQGPYNFIQDSM(averaged) S13E (AQMQGPYNFIQDEM) | 0.01271
AQMQGPYNFIQDSM(averaged) Q11M (AQMQGPYNFIMDSM) | 0.0771
AQMQGPYNFIQDSM(averaged) G5L (AQMQLPYNFIQDSM) | 0.1936
AQMQGPYNFIQDSM(averaged) D12Q (AQMQGPYNFIQQSM) | 0.008788
AQMQGPYNFIQDSM(averaged) Q2K (AKMQGPYNFIQDSM) | 0.006084
AQMQGPYNFIQDSM(averaged) A1N (NQMQGPYNFIQDSM) | 0.01838
AQMQGPYNFIQDSM(averaged) M14G (AQMQGPYNFIQDSG) | 0.000626
AQMQGPYNFIQDSM(averaged) Q11K (AQMQGPYNFIKDSM) | 0.0002863
AQMQGPYNFIQDSM(averaged) Q4T (AQMTGPYNFIQDSM) | 0.0001371
AQMQGPYNFIQDSM(averaged) N8T (AQMQGPYTFIQDSM) | 0.1728
AQMQGPYNFIQDSM(averaged) M3K (AQKQGPYNFIQDSM) | 0.006729
AQMQGPYNFIQDSM(averaged) Q11S (AQMQGPYNFISDSM) | 0.05986
AQMQGPYNFIQDSM(averaged) D12H (AQMQGPYNFIQHSM) | 0.1155
AQMQGPYNFIQDSM(averaged) I10H (AQMQGPYNFHQDSM) | 0.003149
AQMQGPYNFIQDSM(averaged) M14E (AQMQGPYNFIQDSE) | 0.2115
AQMQGPYNFIQDSM(averaged) M3S (AQSQGPYNFIQDSM) | 0.002665
AQMQGPYNFIQDSM(averaged) P6L (AQMQGLYNFIQDSM) | 0.02822
AQMQGPYNFIQDSM(averaged) Y7K (AQMQGPKNFIQDSM) | 0
AQMQGPYNFIQDSM(averaged) G5I (AQMQIPYNFIQDSM) | 0.01217
AQMQGPYNFIQDSM(averaged) Q11V (AQMQGPYNFIVDSM) | 0.06659
AQMQGPYNFIQDSM(averaged) Q2P (APMQGPYNFIQDSM) | 0.007875
AQMQGPYNFIQDSM(averaged) Q11W (AQMQGPYNFIWDSM) | 0.01601
AQMQGPYNFIQDSM(averaged) F9Q (AQMQGPYNQIQDSM) | 0.01043
